From PubChem BioAssay AID276 (DTP/NCI, 2004)
“And” between values parts separate entries of the source, which are not always exact repeats. Identical values can stand only once. Inconclusive results and toxic doses are left out. How the source made its calls: active means survival T/C of 150% or more; inactive means T/C below 125% in these data.

Tested on: B6C3F1 mice, Lewis lung carcinoma iv, survival T/C
Assay: NCI In Vivo Anticancer Drug Screen. Data for tumor model Lewis Lung Carcinoma (intravenous) in B6C3F1 mice
Settings: endpoint: median survival time, schedule: Q01DX009 (ip), higher = longer survival
Summary of the method: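 Mice carrying transplanted tumors received test compound; survival in the treated group was divided by that of the vehicle-treated control group to give the T/C value.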

[1] = dose: 25.0 mg/kg/injection, vehicle: saline with Tween-80
[2] = dose: 50.0 mg/kg/injection, vehicle: saline with Tween-80
[3] = dose: 100.0 mg/kg/injection, vehicle: saline with Tween-80
[4] = dose: 0.06 mg/kg/injection, vehicle: suspension in saline
[5] = dose: 0.12 mg/kg/injection, vehicle: suspension in saline
[6] = dose: 0.25 mg/kg/injection, vehicle: suspension in saline
[7] = dose: 0.5 mg/kg/injection, vehicle: suspension in saline
[8] = dose: 12.5 mg/kg/injection, vehicle: saline
[9] = dose: 50.0 mg/kg/injection, vehicle: saline
[10] = dose: 100.0 mg/kg/injection, vehicle: saline
[11] = dose: 400.0 mg/kg/injection, vehicle: saline
[12] = dose: 6.25 mg/kg/injection, vehicle: saline with Tween-80
[13] = dose: 12.5 mg/kg/injection, vehicle: saline with Tween-80

Measured: T/C

O=NN(CCCl)C(=O)NCCCl
inactive: dose: 1.5 mg/kg/injection, vehicle: Klucel (hydroxypropylcellulose) (HPC) 105 % of control | dose: 1.5 mg/kg/injection, vehicle: saline + alcohol 107 % of control | dose: 3.0 mg/kg/injection, vehicle: Klucel (hydroxypropylcellulose) (HPC) 120 % of control | dose: 3.0 mg/kg/injection, vehicle: saline + alcohol 121 % of control | dose: 12.0 mg/kg/injection, vehicle: Klucel (hydroxypropylcellulose) (HPC) 114 % of control
active: dose: 5.0 mg/kg/injection, vehicle: saline with Tween-80 303 % of control | dose: 6.0 mg/kg/injection, vehicle: saline + alcohol 152 % of control | dose: 10.0 mg/kg/injection, vehicle: saline with Tween-80 181 % of control | dose: 12.0 mg/kg/injection, vehicle: saline + alcohol 180 % of control

Cc1nc(N)nc(N)c1-c1ccc(Cl)c(Cl)c1
inactive: dose: 0.32 mg/kg/injection, vehicle: saline 97 % of control | dose: 0.63 mg/kg/injection, vehicle: saline 109 % of control | dose: 1.25 mg/kg/injection, vehicle: saline 120 % of control | dose: 2.5 mg/kg/injection, vehicle: saline 113 % of control | dose: 5.0 mg/kg/injection, vehicle: saline 124 % of control | dose: 10.0 mg/kg/injection, vehicle: saline 112 % of control

O=C(Nc1cccc(Cl)c1)ON1C(=O)C2C(C1=O)C1(Cl)C(Cl)C(Cl)C2(Cl)C1(Cl)Cl (stereo unspecified)
inactive: [1] 95 % of control | [2] 97 % of control | [3] 87 % of control

COc1cccc2c1C(=O)c1c(O)c3c(c(O)c1C2=O)C[C@H](O)C[C@@H]3OC1CC(N)C(O)C(C)O1 (stereo partly specified)
inactive: dose: 0.75 mg/kg/injection, vehicle: water 100 % of control | dose: 1.5 mg/kg/injection, vehicle: water 104 % of control | dose: 3.0 mg/kg/injection, vehicle: water 100 % of control | dose: 6.0 mg/kg/injection, vehicle: water 104 % of control

C/C=C1\C[C@@H]2C(OC)Nc3cc(O)c(OC)cc3C(=O)N2C1 (stereo partly specified)
inactive: dose: 0.03 mg/kg/injection, vehicle: saline 100 % of control | dose: 0.03 mg/kg/injection, vehicle: suspension in saline 92 % of control | dose: 0.06 mg/kg/injection, vehicle: saline 110 % of control | [4] 96 % of control | dose: 0.12 mg/kg/injection, vehicle: saline 101 % of control | [5] 97 % of control | dose: 0.25 mg/kg/injection, vehicle: saline 108 % of control | [6] 104 % of control | dose: 0.5 mg/kg/injection, vehicle: saline 104 % of control | [7] 105 % of control

CCC1OC(OC)C=CC1=O (stereo unspecified)
inactive: [8] 97 % of control | [9] 97 % of control

C=C1C(=O)OC2CC(C)C3C4OC4C(O)C3(C)C(O)C12 (stereo unspecified)
inactive: dose: 5.62 mg/kg/injection, vehicle: saline 100 % of control | dose: 11.25 mg/kg/injection, vehicle: saline 102 % of control | dose: 22.5 mg/kg/injection, vehicle: saline 100 % of control | dose: 45.0 mg/kg/injection, vehicle: saline 108 % of control | dose: 90.0 mg/kg/injection, vehicle: saline 105 % of control

OCC12COCN1COC2
inactive: [8] 103 % of control and 104 % of control | dose: 25.0 mg/kg/injection, vehicle: saline 98 % of control and 101 % of control | [9] 100 % of control and 106 % of control | [10] 97 % of control and 102 % of control | dose: 200.0 mg/kg/injection, vehicle: saline 98 % of control | [11] 104 % of control and 112 % of control

CS(=O)(=O)Nc1ccc(C(=O)CCN2CCCCCC2)cc1
inactive: dose: 25.0 mg/kg/injection, vehicle: suspension in saline 95 % of control | dose: 50.0 mg/kg/injection, vehicle: suspension in saline 100 % of control | dose: 100.0 mg/kg/injection, vehicle: suspension in saline 105 % of control | dose: 200.0 mg/kg/injection, vehicle: suspension in saline 100 % of control | dose: 400.0 mg/kg/injection, vehicle: suspension in saline 102 % of control

C1CN1c1nc(N2CC2)nc(N2CC2)n1
inactive: [4] 96 % of control | [5] 92 % of control | [6] 101 % of control | [7] 106 % of control | dose: 1.0 mg/kg/injection, vehicle: suspension in saline 121 % of control

C[CH2][Ge]([CH2]C)[CH2]C.C[CH2][Ge]([CH2]C)[CH2]C.C[CH2][Ge]([CH2]C)[O][Ge]([CH2]C)[CH2]C
inactive: [12] 105 % of control | [13] 106 % of control | [1] 106 % of control | [2] 101 % of control | [3] 113 % of control

O=S(=O)(SC(S(=O)(=O)c1ccccc1)S(=O)(=O)c1ccccc1)c1ccccc1
inactive: dose: 100.0 mg/kg/injection, vehicle: Klucel (hydroxypropylcellulose) (HPC) 100 % of control | dose: 200.0 mg/kg/injection, vehicle: Klucel (hydroxypropylcellulose) (HPC) 102 % of control | dose: 400.0 mg/kg/injection, vehicle: Klucel (hydroxypropylcellulose) (HPC) 98 % of control

Cc1cc(=O)n2c3c(c4c(cc13)c(CN(C)C)cc(=O)n4C)OC2
inactive: [12] 106 % of control | [13] 105 % of control | [1] 109 % of control | [2] 123 % of control

O=CC(O)C(O)C(O)C(O)CO (stereo unspecified)
inactive: dose: 75.0 mg/kg/injection, vehicle: saline 101 % of control | dose: 150.0 mg/kg/injection, vehicle: saline 97 % of control | dose: 300.0 mg/kg/injection, vehicle: saline 97 % of control | dose: 600.0 mg/kg/injection, vehicle: saline 97 % of control | dose: 1200.0 mg/kg/injection, vehicle: saline 96 % of control

C=CCCC(=O)CCCC(=O)O[C@@H]1[C@@H]2[C@H](CC1(C)C)[C@H](O)[C@@]13O[C@@H]1[C@H](O)[C@@]1(CO1)[C@@]23C
inactive: dose: 3.12 micrograms/kg/injection, vehicle: Klucel (hydroxypropylcellulose) (HPC) 113 % of control | dose: 6.25 micrograms/kg/injection, vehicle: Klucel (hydroxypropylcellulose) (HPC) 98 % of control | dose: 12.5 micrograms/kg/injection, vehicle: Klucel (hydroxypropylcellulose) (HPC) 97 % of control | dose: 25.0 micrograms/kg/injection, vehicle: Klucel (hydroxypropylcellulose) (HPC) 94 % of control | dose: 50.0 micrograms/kg/injection, vehicle: Klucel (hydroxypropylcellulose) (HPC) 110 % of control

O=Cc1c(O)c2ccccc2[nH]c1=O
inactive: [12] 107 % of control | [13] 105 % of control | [1] 113 % of control | [2] 107 % of control | [3] 116 % of control

OCCCN1CCCCC1CO (stereo unspecified)
inactive: [11] 96 % of control | dose: 800.0 mg/kg/injection, vehicle: saline 97 % of control

O=c1n[n+]([O-])ccn1C1OC(CO)C(O)C1O (stereo unspecified)
inactive: [9] 117 % of control | [10] 107 % of control | [11] 89 % of control

NC(CNC(=O)CBr)C(=O)O (stereo unspecified)
inactive: dose: 6.25 mg/kg/injection, vehicle: water 102 % of control | dose: 12.5 mg/kg/injection, vehicle: water 95 % of control | dose: 25.0 mg/kg/injection, vehicle: water 109 % of control | dose: 50.0 mg/kg/injection, vehicle: water 109 % of control
